Data published in PubChem BioAssay AID1963854 (Molecular Pharmacology Branch, DTP, NCI, 2024).
pIC50: −log10 of the molar value.

System: 186277-243-T-J2-PDC complex spheroid viability
Assay: Anticancer human tumor 186277-243-T-J2-PDC patient-derived colon adenocarcinoma cell line growth inhibition [POLQ]
Details: for pIC50: curve of first compound; for viability, T/C: stronger effect = lower value; active = viability on the fitted dose curve at most 10% of control; inactive = the rest
Procedure, shortened: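 Three-cell-type spheroids modelling solid tumor plus stroma served as the readout system; POL inhibitors were tested individually and in combination, concentration ranges set by clinical Cmax where known.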

[1] = second compound 0.0316 µM, first compound 0.0316 µM
[2] = second compound 0.0316 µM, first compound 0.1 µM
[3] = second compound 0.0316 µM, first compound 0.316 µM
[4] = second compound 0.0316 µM, first compound 1 µM
[5] = second compound 0.0316 µM, first compound 3.16 µM
[6] = second compound 0.0316 µM, first compound 10 µM
[7] = second compound 0.1 µM, first compound 0.0316 µM
[8] = second compound 0.1 µM, first compound 0.1 µM
[9] = second compound 0.1 µM, first compound 0.316 µM
[10] = second compound 0.1 µM, first compound 1 µM
[11] = second compound 0.1 µM, first compound 3.16 µM
[12] = second compound 0.1 µM, first compound 10 µM
[13] = second compound 0.316 µM, first compound 0.0316 µM
[14] = second compound 0.316 µM, first compound 0.1 µM
[15] = second compound 0.316 µM, first compound 0.316 µM
[16] = second compound 0.316 µM, first compound 1 µM
[17] = second compound 0.316 µM, first compound 3.16 µM
[18] = second compound 0.316 µM, first compound 10 µM
[19] = second compound 1 µM, first compound 0.0316 µM
[20] = second compound 1 µM, first compound 0.1 µM
[21] = second compound 1 µM, first compound 0.316 µM
[22] = second compound 1 µM, first compound 1 µM
[23] = second compound 1 µM, first compound 3.16 µM
[24] = second compound 1 µM, first compound 10 µM
[25] = second compound 3.16 µM, first compound 0.0316 µM
[26] = second compound 3.16 µM, first compound 0.1 µM
[27] = second compound 3.16 µM, first compound 0.316 µM
[28] = second compound 3.16 µM, first compound 1 µM
[29] = second compound 3.16 µM, first compound 3.16 µM
[30] = second compound 3.16 µM, first compound 10 µM
[31] = second compound 10 µM, first compound 0.0316 µM
[32] = second compound 10 µM, first compound 0.1 µM
[33] = second compound 10 µM, first compound 0.316 µM
[34] = second compound 10 µM, first compound 1 µM
[35] = second compound 10 µM, first compound 3.16 µM
[36] = second compound 10 µM, first compound 10 µM
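Note: spheroids exposed to compounds for seven days.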
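Throughout, for viability, T/C: 100% = DMSO vehicle control viability.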

CCc1cc2c(N3CCc4c(cc(Cn5ccnc5)cc4-c4cn(C)nc4C(F)(F)F)C3=O)cc(C)nc2c(OC)n1 + Cc1cccc(N(C)C(=O)C2C(O)CCN2c2nc(C)cc(C(F)(F)F)c2C#N)c1
< 5.00: pIC50 (second compound 0.0316 µM) | pIC50 (second compound 0.1 µM) | pIC50 (second compound 0.316 µM) | pIC50 (second compound 1 µM) | pIC50 (second compound 3.16 µM) | pIC50 (second compound 10 µM)
inactive: viability, T/C [1] 111% | viability, T/C [2] 86.9% | viability, T/C [3] 98.8% | viability, T/C [4] 97.1% | viability, T/C [5] 93.9% | viability, T/C [6] 95.2% | viability, T/C [7] 90.8% | viability, T/C [8] 91.3% | viability, T/C [9] 96.8% | viability, T/C [10] 99.4% | viability, T/C [11] 112% | viability, T/C [12] 83.2% | viability, T/C [13] 97% | viability, T/C [14] 101% | viability, T/C [15] 101% | viability, T/C [16] 114% | viability, T/C [17] 116% | viability, T/C [18] 92.5% | viability, T/C [19] 99.4% | viability, T/C [20] 96.9% | viability, T/C [21] 107% | viability, T/C [22] 111% | viability, T/C [23] 115% | viability, T/C [24] 83.4% | viability, T/C [25] 108% | viability, T/C [26] 104% | viability, T/C [27] 88.6% | viability, T/C [28] 113% | viability, T/C [29] 94.1% | viability, T/C [30] 92.9% | viability, T/C [31] 101% | viability, T/C [32] 110% | viability, T/C [33] 107% | viability, T/C [34] 103% | viability, T/C [35] 104% | viability, T/C [36] 97.9%

CC[C@@]1(O)C(=O)OCc2c1cc1n(c2=O)Cc2cc3c(CN(C)C)c(O)ccc3nc2-1 + COC1C(OC(N)=O)C(O)C(Oc2ccc3c(O)c(NC(=O)c4ccc(O)c(CC=C(C)C)c4)c(=O)oc3c2C)OC1(C)C
7.16: pIC50 (second compound 0.0316 µM)
inactive: viability, T/C (second compound 0.0316 µM, first compound 0.000316 µM) 105% | viability, T/C (second compound 0.0316 µM, first compound 0.001 µM) 103% | viability, T/C (second compound 0.0316 µM, first compound 0.00316 µM) 97.4% | viability, T/C (second compound 0.0316 µM, first compound 0.01 µM) 114% | viability, T/C [1] 65.5% | viability, T/C [2] 43% | viability, T/C (second compound 0.1 µM, first compound 0.000316 µM) 96.1% | viability, T/C (second compound 0.1 µM, first compound 0.001 µM) 99.1% | viability, T/C (second compound 0.1 µM, first compound 0.00316 µM) 117% | viability, T/C (second compound 0.1 µM, first compound 0.01 µM) 115% | viability, T/C [7] 60.4% | viability, T/C [8] 42% | viability, T/C (second compound 0.316 µM, first compound 0.000316 µM) 101% | viability, T/C (second compound 0.316 µM, first compound 0.001 µM) 113% | viability, T/C (second compound 0.316 µM, first compound 0.00316 µM) 104% | viability, T/C (second compound 0.316 µM, first compound 0.01 µM) 109% | viability, T/C [13] 57.9% | viability, T/C [14] 40% | viability, T/C (second compound 1 µM, first compound 0.000316 µM) 105% | viability, T/C (second compound 1 µM, first compound 0.001 µM) 105% | viability, T/C (second compound 1 µM, first compound 0.00316 µM) 97.1% | viability, T/C (second compound 1 µM, first compound 0.01 µM) 120% | viability, T/C [19] 57% | viability, T/C [20] 38.5% | viability, T/C (second compound 3.16 µM, first compound 0.000316 µM) 97.3% | viability, T/C (second compound 3.16 µM, first compound 0.001 µM) 107% | viability, T/C (second compound 3.16 µM, first compound 0.00316 µM) 102% | viability, T/C (second compound 3.16 µM, first compound 0.01 µM) 107% | viability, T/C [25] 56.6% | viability, T/C [26] 38.9% | viability, T/C (second compound 10 µM, first compound 0.000316 µM) 107% | viability, T/C (second compound 10 µM, first compound 0.001 µM) 119% | viability, T/C (second compound 10 µM, first compound 0.00316 µM) 104% | viability, T/C (second compound 10 µM, first compound 0.01 µM) 110% | viability, T/C [31] 56.3% | viability, T/C [32] 38.9%
7.31: pIC50 (second compound 1 µM) | pIC50 (second compound 3.16 µM)
7.28: pIC50 (second compound 0.316 µM)
7.22: pIC50 (second compound 0.1 µM)
7.32: pIC50 (second compound 10 µM)

O=C(c1cc(Cc2n[nH]c(=O)c3ccccc23)ccc1F)N1CCN(C(=O)C2CC2)CC1 + Cc1cccc(N(C)C(=O)C2C(O)CCN2c2nc(C)cc(C(F)(F)F)c2C#N)c1
inactive: viability, T/C [1] 89.3% | viability, T/C [2] 99.9% | viability, T/C [3] 99.9% | viability, T/C [4] 100% | viability, T/C [5] 118% | viability, T/C [6] 75.5% | viability, T/C [7] 94% | viability, T/C [8] 92.4% | viability, T/C [9] 96.3% | viability, T/C [10] 92.7% | viability, T/C [11] 114% | viability, T/C [12] 81.8% | viability, T/C [13] 94.8% | viability, T/C [14] 116% | viability, T/C [15] 99.7% | viability, T/C [16] 97% | viability, T/C [17] 112% | viability, T/C [18] 78.1% | viability, T/C [19] 101% | viability, T/C [20] 96.8% | viability, T/C [21] 113% | viability, T/C [22] 90.7% | viability, T/C [23] 99.5% | viability, T/C [24] 76.1% | viability, T/C [25] 96.3% | viability, T/C [26] 99% | viability, T/C [27] 97.6% | viability, T/C [28] 106% | viability, T/C [29] 113% | viability, T/C [30] 58.7% | viability, T/C [31] 115% | viability, T/C [32] 103% | viability, T/C [33] 100% | viability, T/C [34] 108% | viability, T/C [35] 113% | viability, T/C [36] 65.2%
< 5.00: pIC50 (second compound 0.0316 µM) | pIC50 (second compound 0.1 µM) | pIC50 (second compound 0.316 µM) | pIC50 (second compound 1 µM) | pIC50 (second compound 3.16 µM) | pIC50 (second compound 10 µM)

COc1cccc2c1C(=O)c1c(O)c3c(c(O)c1C2=O)CC(O)(C(=O)CO)CC3OC1CC(N)C(O)C(C)O1 (stereo not drawn) + Nc1ccc(C#CCN(C(=O)Cc2ncc(C(F)(F)F)cc2C(F)(F)F)c2ccc(F)cc2)nn1
active: viability, T/C [4] 1.35% | viability, T/C [5] 0.27% | viability, T/C [6] 1.66% | viability, T/C [10] 1.35% | viability, T/C [11] 0.37% | viability, T/C [12] 1.4% | viability, T/C [16] 1.12% | viability, T/C [17] 1.33% | viability, T/C [18] 0.64% | viability, T/C [22] 1.58% | viability, T/C [23] 1.81% | viability, T/C [24] 2.38% | viability, T/C [28] 0.94% | viability, T/C [29] 1.21% | viability, T/C [30] 1.74% | viability, T/C [34] 1.09% | viability, T/C [35] 1.27% | viability, T/C [36] 0.63%
6.76: pIC50 (second compound 10 µM)
6.59: pIC50 (second compound 0.0316 µM) | pIC50 (second compound 0.316 µM)
6.60: pIC50 (second compound 0.1 µM)
6.63: pIC50 (second compound 1 µM)
inactive: viability, T/C [1] 144% | viability, T/C [2] 110% | viability, T/C [3] 37.2% | viability, T/C [7] 169% | viability, T/C [8] 107% | viability, T/C [9] 39% | viability, T/C [13] 156% | viability, T/C [14] 106% | viability, T/C [15] 40.7% | viability, T/C [19] 171% | viability, T/C [20] 106% | viability, T/C [21] 32.5% | viability, T/C [25] 153% | viability, T/C [26] 101% | viability, T/C [27] 32.4% | viability, T/C [31] 131% | viability, T/C [32] 76.4% | viability, T/C [33] 21.8%
6.64: pIC50 (second compound 3.16 µM)
